Assay results published in the NIST ThermoML archive (doi:10.1021/je900482x).

Experiment: isobaric coefficient of expansion
Settings: Liquid, Microcalorimeter

CCCC[n+]1cccc(C)c1.F[B-](F)(F)F [1-butyl-3-methylpyridinium tetrafluoroborate]
isobaric coefficient of expansion
Settings | 5000 kPa | 10000 kPa | 15000 kPa | 20000 kPa | 25000 kPa | 30000 kPa | 35000 kPa | 40000 kPa | 45000 kPa | 50000 kPa
278.15 K | 0.000607 1/K | 0.000601 1/K | 0.000596 1/K | 0.000591 1/K | 0.000584 1/K | 0.000581 1/K | 0.000576 1/K | 0.00057 1/K | 0.000566 1/K | 0.00056 1/K
288.15 K | 0.0006 1/K | 0.000593 1/K | 0.000588 1/K | 0.000585 1/K | 0.000581 1/K | 0.000575 1/K | 0.000569 1/K | 0.000564 1/K | 0.000562 1/K | 0.000558 1/K
298.15 K | 0.000594 1/K | 0.000589 1/K | 0.000582 1/K | 0.000577 1/K | 0.000572 1/K | 0.000566 1/K | 0.00056 1/K | 0.000556 1/K | 0.000551 1/K | 0.000549 1/K
308.15 K | 0.000588 1/K | 0.000582 1/K | 0.000576 1/K | 0.000569 1/K | 0.000563 1/K | 0.00056 1/K | 0.000555 1/K | 0.000551 1/K | 0.000545 1/K | 0.000541 1/K
318.15 K | 0.00058 1/K | 0.000578 1/K | 0.000573 1/K | 0.000565 1/K | 0.00056 1/K | 0.000554 1/K | 0.000551 1/K | 0.000545 1/K | 0.000539 1/K | 0.000535 1/K
328.15 K | 0.000575 1/K | 0.00057 1/K | 0.000568 1/K | 0.00056 1/K | 0.000554 1/K | 0.000549 1/K | 0.000545 1/K | 0.000539 1/K | 0.000535 1/K | 0.000531 1/K
338.15 K | 0.000571 1/K | 0.000567 1/K | 0.000562 1/K | 0.000554 1/K | 0.000549 1/K | 0.000545 1/K | 0.000539 1/K | 0.000536 1/K | 0.00053 1/K | 0.000529 1/K
348.15 K | 0.000568 1/K | 0.000562 1/K | 0.000557 1/K | 0.000554 1/K | 0.000548 1/K | 0.000542 1/K | 0.00054 1/K | 0.000534 1/K | 0.000529 1/K | 0.000526 1/K
